Laboratory results taken from ChEMBL document CHEMBL6153147 (J Med Chem, 2025).

Legend:
[1] = molecular target: Serine/threonine-protein kinase PLK1 (Homo sapiens, UniProt P53350); assay: Inhibition of human PLK1 using ATF2 as substrate incubated for 40 mins in presence of [gamma-33P]ATP/Mg acetate by scintillation counting analysis
[2] = molecular target: Serine/threonine-protein kinase PLK2 (Homo sapiens, UniProt Q9NYY3); assay: Inhibition of human PLK2 using ATF2 as substrate incubated for 40 mins in presence of [gamma-33P]ATP/Mg acetate by scintillation counting analysis
[3] = molecular target: Serine/threonine-protein kinase PLK3 (Homo sapiens, UniProt Q9H4B4); assay: Inhibition of human PLK3 using ATF2 as substrate incubated for 40 mins in presence of [gamma-33P]ATP/Mg acetate by scintillation counting analysis
[4] = Selectivity ratio of IC50 for inhibition of human PLK2 using ATF2 as substrate to IC50 for inhibition of human PLK1 using ATF2 as substrate
[5] = Selectivity ratio of IC50 for inhibition of human PLK3 using ATF2 as substrate to IC50 for inhibition of human PLK1 using ATF2 as substrate
[6] = test system: NCI-H460; assay: cells; conditions: Homo sapiens
[7] = test system: PC-9; assay: cells; conditions: Homo sapiens
[8] = test system: A549; assay: cells; conditions: Homo sapiens
[9] = test system: SW-620; assay: cells; conditions: Homo sapiens
[10] = test system: HL-60; assay: cells; conditions: Homo sapiens
[11] = test system: K562; assay: cells; conditions: Homo sapiens
[12] = test system: CCRF-CEM; assay: cells; conditions: Homo sapiens
[13] = test system: KG-1; assay: cells; conditions: Homo sapiens

Chain of Serine/threonine-protein kinase PLK3 (Q9H4B4 whole entry): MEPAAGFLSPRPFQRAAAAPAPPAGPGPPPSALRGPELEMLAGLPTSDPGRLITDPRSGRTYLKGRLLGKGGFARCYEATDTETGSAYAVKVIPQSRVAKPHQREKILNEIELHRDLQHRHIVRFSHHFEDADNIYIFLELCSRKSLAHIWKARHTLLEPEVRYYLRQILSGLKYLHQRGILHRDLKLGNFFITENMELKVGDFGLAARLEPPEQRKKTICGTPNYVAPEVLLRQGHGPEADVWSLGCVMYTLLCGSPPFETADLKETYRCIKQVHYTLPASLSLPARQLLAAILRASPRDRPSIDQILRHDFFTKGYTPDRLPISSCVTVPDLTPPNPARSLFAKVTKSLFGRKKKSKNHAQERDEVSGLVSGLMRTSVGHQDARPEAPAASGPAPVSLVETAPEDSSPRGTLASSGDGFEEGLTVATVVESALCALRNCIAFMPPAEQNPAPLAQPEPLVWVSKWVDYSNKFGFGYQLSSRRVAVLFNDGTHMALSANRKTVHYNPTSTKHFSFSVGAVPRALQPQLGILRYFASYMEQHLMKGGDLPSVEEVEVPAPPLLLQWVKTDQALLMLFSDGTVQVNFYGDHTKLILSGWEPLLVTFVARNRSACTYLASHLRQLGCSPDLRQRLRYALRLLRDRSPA
Chain of Serine/threonine-protein kinase PLK2 (Q9NYY3 whole entry): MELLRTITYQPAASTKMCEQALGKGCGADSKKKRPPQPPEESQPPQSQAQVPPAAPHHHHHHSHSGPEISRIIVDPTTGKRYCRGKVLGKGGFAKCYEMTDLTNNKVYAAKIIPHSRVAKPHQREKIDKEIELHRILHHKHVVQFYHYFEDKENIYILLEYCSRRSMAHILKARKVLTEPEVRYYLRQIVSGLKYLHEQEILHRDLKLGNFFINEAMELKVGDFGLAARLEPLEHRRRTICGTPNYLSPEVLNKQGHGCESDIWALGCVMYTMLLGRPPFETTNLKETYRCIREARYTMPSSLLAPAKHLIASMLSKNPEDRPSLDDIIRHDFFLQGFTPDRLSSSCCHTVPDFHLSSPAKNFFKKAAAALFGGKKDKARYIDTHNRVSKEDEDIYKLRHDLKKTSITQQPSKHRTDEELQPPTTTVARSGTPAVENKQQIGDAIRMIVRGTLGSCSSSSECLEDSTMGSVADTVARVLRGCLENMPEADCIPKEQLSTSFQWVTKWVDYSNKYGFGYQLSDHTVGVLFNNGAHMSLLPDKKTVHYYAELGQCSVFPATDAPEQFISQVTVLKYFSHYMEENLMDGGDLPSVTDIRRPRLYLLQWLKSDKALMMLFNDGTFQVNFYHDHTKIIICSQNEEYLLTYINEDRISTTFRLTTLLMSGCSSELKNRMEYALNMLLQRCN
Chain of Serine/threonine-protein kinase PLK1 (P53350 whole entry): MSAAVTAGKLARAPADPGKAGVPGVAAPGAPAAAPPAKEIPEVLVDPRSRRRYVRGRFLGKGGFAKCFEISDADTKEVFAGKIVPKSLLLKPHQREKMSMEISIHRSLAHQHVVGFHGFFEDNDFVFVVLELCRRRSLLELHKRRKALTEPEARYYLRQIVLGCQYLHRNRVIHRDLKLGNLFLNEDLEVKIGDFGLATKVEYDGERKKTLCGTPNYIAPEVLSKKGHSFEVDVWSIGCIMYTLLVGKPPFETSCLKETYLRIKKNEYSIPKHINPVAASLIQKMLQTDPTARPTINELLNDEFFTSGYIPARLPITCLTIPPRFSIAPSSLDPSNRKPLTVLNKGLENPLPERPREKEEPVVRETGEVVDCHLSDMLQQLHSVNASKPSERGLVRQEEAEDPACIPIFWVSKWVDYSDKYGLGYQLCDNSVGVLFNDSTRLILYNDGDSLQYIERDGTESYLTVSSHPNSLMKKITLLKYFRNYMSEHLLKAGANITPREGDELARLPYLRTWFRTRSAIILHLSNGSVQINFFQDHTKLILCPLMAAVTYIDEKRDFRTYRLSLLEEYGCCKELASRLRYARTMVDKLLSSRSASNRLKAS

Row | SMILES | IC50 [1] | IC50 [2] | IC50 [3] | IC50 [6] | IC50 [7] | IC50 [8] | IC50 [9] | IC50 [10] | IC50 [11] | IC50 [12] | IC50 [13] | ratio [4] | ratio [5]
1 | CC[C@@H]1C(=O)N(C)c2cnc(Nc3cc(N(C)CCN(C)C)cc(F)c3OCCCO)nc2N1C1CCCC1 | 20 nM | 5.87 µM | 1.46 µM | – | – | – | – | – | – | – | – | 292 | 72
2 | CC[C@@H]1C(=O)N(C)c2cnc(Nc3cc(N4CCN(C(=O)OC(C)(C)C)CC4)ccc3OCCCO)nc2N1C1CCCC1 | 195 nM | > 10 µM | > 10 µM | – | – | – | – | – | – | – | – | > 51 | > 51
3 | CC[C@@H]1C(=O)N(C)c2cnc(Nc3cc(N4CCC(N)CC4)ccc3OCCO)nc2N1C1CCCC1 | 34 nM | > 10 µM | > 10 µM | – | – | – | – | – | – | – | – | > 292 | > 292
4 | CC[C@@H]1C(=O)N(C)c2cnc(Nc3cc(N4CCC(NC(=O)OC(C)(C)C)CC4)ccc3OCCO)nc2N1C1CCCC1 | 149 nM | > 10 µM | > 10 µM | – | – | – | – | – | – | – | – | > 67.1 | > 67.1
5 | CC[C@@H]1C(=O)N(C)c2cnc(Nc3cc(N4CCN(CC)CC4)cc(F)c3OC)nc2N1C1CCCC1 | 12 nM | 0.61 µM | 1.29 µM | – | – | – | – | – | – | – | – | 51 | 107
6 | CC[C@@H]1C(=O)N(C)c2cnc(Nc3cc(N(C)CCN(C)C)cc(F)c3OC)nc2N1C1CCCC1 | 13 nM | 0.422 µM | 0.625 µM | – | – | – | – | – | – | – | – | 32 | 48
7 | CC[C@@H]1C(=O)N(C)c2cnc(Nc3cc(N4CCN(C)CC4)cc(F)c3OCCO)nc2N1C1CCCC1 | 11 nM | > 10 µM | 3.22 µM | 76 nM | 82 nM | 57 nM | 6.8 nM | 39 nM | 5190 nM | 64 nM | > 10000 nM | > 952 | 306
8 | CC[C@@H]1C(=O)N(C)c2cnc(Nc3cc(N4CCN(C(=O)OC(C)(C)C)CC4)ccc3OCCO)nc2N1C1CCCC1 | 138 nM | > 10 µM | > 10 µM | – | – | – | – | – | – | – | – | > 73 | > 73
9 | CN1CCN(c2ccc(OC(F)(F)F)c(Nc3ncc4c(n3)-c3c(c(C(N)=O)nn3CCO)CC4)c2)CC1 [ONVANSERTIB] | – | – | – | 36 nM | 58 nM | 45 nM | 18 nM | 89 nM | 12 nM | 34 nM | 8660 nM | – | –
10 | CC[C@@H]1C(=O)N(C)c2cnc(Nc3cc(N4CCNCC4)ccc3OCCCO)nc2N1C1CCCC1 | 23 nM | > 10 µM | 5.57 µM | – | – | – | – | – | – | – | – | > 435 | 225
11 | CC[C@@H]1C(=O)N(C)c2cnc(Nc3cc(N4CCN(C)CC4)cc(Cl)c3OCCO)nc2N1C1CCCC1 | 11 nM | 7.85 µM | 5.76 µM | – | – | – | – | – | – | – | – | 764 | 576
12 | CC[C@@H]1C(=O)N(C)c2cnc(Nc3cc(N4CCN(C)CC4)cc(F)c3OCCCO)nc2N1C1CCNC1 (some centres undefined) | 7460 nM | – | – | – | – | – | – | – | – | – | – | – | –
13 | CC[C@@H]1C(=O)N(C)c2cnc(Nc3cc(N4CCN(C)CC4)ccc3OC)nc2N1C1CCCC1 | 21 nM | 0.255 µM | 0.635 µM | – | – | – | – | – | – | – | – | 12 | 30
14 | CC[C@@H]1C(=O)N(C)c2cnc(Nc3cc(N4CCN(C)CC4)cc(F)c3OC[C@H](C)O)nc2N1C1CCCC1 | 15 nM | > 10 µM | 3.67 µM | 326 nM | 1990 nM | 1540 nM | 18 nM | 54 nM | 7.7 nM | 63 nM | 588 nM | > 658 | 373
15 | CC[C@@H]1C(=O)N(C)c2cnc(Nc3cc(N4CCN(C)CC4)cc(F)c3OC)nc2N1C1CCCC1 | 11 nM | 0.459 µM | 1.18 µM | – | – | – | – | – | – | – | – | 42 | 108
16 | CC[C@@H]1C(=O)N(C)c2cnc(Nc3cc(N4CCC(NC(=O)OC(C)(C)C)CC4)ccc3OCCCO)nc2N1C1CCCC1 | 97 nM | > 10 µM | > 10 µM | – | – | – | – | – | – | – | – | > 104 | > 104
17 | CC[C@@H]1C(=O)N(C)c2cnc(Nc3cc(N4CCC(NC(=O)OC(C)(C)C)CC4)ccc3OC)nc2N1C1CCCC1 | 152 nM | 3.37 µM | 6.45 µM | – | – | – | – | – | – | – | – | 22 | 43
18 | CC[C@@H]1C(=O)N(C)c2cnc(Nc3cc(N4CCC(N)CC4)ccc3OCCCO)nc2N1C1CCCC1 | 31 nM | > 10 µM | 6.01 µM | – | – | – | – | – | – | – | – | > 319 | 192
19 | CC[C@@H]1C(=O)N(C)c2cnc(Nc3cc(N4CCN(C)CC4)cc(Cl)c3OCCO)nc2N1C1CCNC1 (some centres undefined) | 9250 nM | – | – | – | – | – | – | – | – | – | – | – | –
20 | CC[C@@H]1C(=O)N(C)c2cnc(Nc3cc(N4CCC(N)CC4)ccc3OC)nc2N1C1CCCC1 | 29 nM | 0.505 µM | 0.926 µM | – | – | – | – | – | – | – | – | 17 | 32
21 | CC[C@@H]1C(=O)N(C)c2cnc(Nc3cc(N4CCNCC4)ccc3OCCO)nc2N1C1CCCC1 | 39 nM | > 10.1 µM | 5.83 µM | – | – | – | – | – | – | – | – | > 256 | 150
22 | CC[C@@H]1C(=O)N(C)c2cnc(Nc3cc(N4CCN(C)CC4)cc(Cl)c3OC)nc2N1C1CCCC1 | 12 nM | 0.325 µM | 0.778 µM | – | – | – | – | – | – | – | – | 27 | 64

The next lines start with results.

Row | IC50 [1] | IC50 [2] | IC50 [3] | IC50 [6] | IC50 [7] | IC50 [8] | IC50 [9] | IC50 [10] | IC50 [11] | IC50 [12] | IC50 [13] | SMILES | ratio [4] | ratio [5]
23 | 27 nM | > 10.1 µM | 5.67 µM | – | – | – | – | – | – | – | – | CC[C@@H]1C(=O)N(C)c2cnc(Nc3cc(N4CCN(C)CC4)ccc3OCCO)nc2N1C1CCCC1 | > 450 | 245
24 | 40 nM | > 10 µM | > 10 µM | – | – | – | – | – | – | – | – | CC[C@@H]1C(=O)N(C)c2cnc(Nc3cc(N4CCNCC4)ccc3OCCCO)nc2N1C(C)C | > 250 | > 250
25 | 101 nM | > 10 µM | > 10 µM | – | – | – | – | – | – | – | – | CC[C@@H]1C(=O)N(C)c2cnc(Nc3cc(N4CCNCC4)ccc3OCCO)nc2N1C(C)C | > 99 | > 99
26 | 18 nM | 5.56 µM | 3.99 µM | – | – | – | – | – | – | – | – | CC[C@@H]1C(=O)N(C)c2cnc(Nc3cc(N4CCN(C)CC4)cc(Cl)c3OC)nc2N1C(C)C | 314 | 221
27 | 141 nM | > 10 µM | > 10 µM | – | – | – | – | – | – | – | – | CC[C@@H]1C(=O)N(C)c2cnc(Nc3cc(N4CCN(C)CC4)cc(F)c3OC[C@H](C)O)nc2N1C(C)C | > 71 | > 71
28 | 33 nM | > 10 µM | > 10 µM | – | – | – | – | – | – | – | – | CC[C@@H]1C(=O)N(C)c2cnc(Nc3cc(N4CCN(C)CC4)ccc3OCCO)nc2N1C(C)C | > 303 | > 303
29 | 27 nM | > 10 µM | 6.98 µM | – | – | – | – | – | – | – | – | CC[C@@H]1C(=O)N(C)c2cnc(Nc3cc(N4CCN(CC)CC4)ccc3OCCO)nc2N1C1CCCC1 | > 370 | 258
30 | 20 nM | > 10 µM | > 10 µM | – | – | – | – | – | – | – | – | CC[C@@H]1C(=O)N(C)c2cnc(Nc3cc(N4CCN(C)CC4)cc(Cl)c3OCCCO)nc2N1C(C)C | > 333 | > 333
31 | 74 nM | > 10 µM | > 10 µM | – | – | – | – | – | – | – | – | CC[C@@H]1C(=O)N(C)c2cnc(Nc3cc(N4CCN(CC)CC4)ccc3OCCO)nc2N1C(C)C | > 135 | > 135
32 | 20 nM | > 10 µM | > 10 µM | – | – | – | – | – | – | – | – | CC[C@@H]1C(=O)N(C)c2cnc(Nc3cc(N4CCN(CC)CC4)cc(F)c3OCCO)nc2N1C1CCCC1 | > 500 | > 500
33 | 22 nM | > 10 µM | > 10 µM | – | – | – | – | – | – | – | – | CC[C@@H]1C(=O)N(C)c2cnc(Nc3cc(N4CCN(C)CC4)ccc3OCCCO)nc2N1C(C)C | > 300 | > 300
34 | 26 nM | > 10 µM | 4.91 µM | – | – | – | – | – | – | – | – | CC[C@@H]1C(=O)N(C)c2cnc(Nc3cc(N4CCN(CC)CC4)ccc3OCCCO)nc2N1C1CCCC1 | > 357 | 175
35 | 16 nM | 6.6 µM | 5.16 µM | – | – | – | – | – | – | – | – | CC[C@@H]1C(=O)N(C)c2cnc(Nc3cc(N4CCN(C)CC4)cc(F)c3OC)nc2N1C(C)C | 412 | 322
36 | 16 nM | > 10 µM | 9.37 µM | 95 nM | 250 nM | 492 nM | 83 nM | 77 nM | 7.7 nM | 112 nM | 342 nM | CC[C@@H]1C(=O)N(C)c2cnc(Nc3cc(N4CCN(C)CC4)cc(F)c3OCCCO)nc2N1C(C)C | > 625 | 586
37 | 48 nM | > 10 µM | > 10 µM | – | – | – | – | – | – | – | – | CC[C@@H]1C(=O)N(C)c2cnc(Nc3cc(N4CCN(C)CC4)cc(Cl)c3OCCO)nc2N1C(C)C | > 208 | > 208
38 | 30 nM | > 10 µM | > 10 µM | – | – | – | – | – | – | – | – | CC[C@@H]1C(=O)N(C)c2cnc(Nc3cc(N4CCN(C)CC4)cc(F)c3OCCO)nc2N1C(C)C | > 330 | > 330
